This note sets out measurements from paper PMC12250965, “Design and Synthesis of Sulfonium and Selenonium Derivatives Bearing 3′,5′-O-Benzylidene Acetal Side Chain Structure as Potent α-Glucosidase Inhibitors” (Molecules, 2025).

Data set [1] relates to rat intestinal maltase. The data set can be described thus: Inhibition-kinetic study (Lineweaver–Burk), maltase. Type of data set: biochemical. How it is done:
(§1) In order to explore the inhibitory mechanism of the α-glucosidase by this family of compounds, enzyme kinetic assays were conducted on 20a, 20c, and 10, followed by a detailed kinetic analysis using the Lineweaver–Burk plots. (Figure 3) The small intestinal brush border membrane vesicles were incubated with varying concentrations of maltose (3.27 mg/mL) for maltase assays and sucrose (52.37 mg/mL) for sucrase assays.
(§2) For kinetic analyses of maltase and sucrase by compounds (20a, 20c, and 10), the enzyme and test samples (1.0 mg/mL for maltase and 0.2 mg/mL for sucrase) were incubated with increasing concentrations of maltose (2.5, 5, 10, 20, 50, 100 μM) and sucrose (5, 10, 20, 50, 100, 1000 μM) at 37 °C for 30 min. The tube was immediately immersed in boiling water for 2 min to stop the reaction, then cooled with water. The glucose concentration was determined by the glucose-oxidase method. […] The Lineweaver–Burk equation follows as: 1/V=Km/Vmax×[…]
(§3) Ki values for each inhibitor were determined by the equation: Ki=[I]×Km/[[…]−Km]

Data set [2] has as its target T1, rat intestinal sucrase (Rattus norvegicus, UniProt P23739).
T1 construct: rat small intestinal brush border membrane vesicles were first prepared; from tissue; host or cells: rat small intestine, brush border membrane vesicles
The data set can be described thus: Inhibition-kinetic study (Lineweaver–Burk), sucrase. The class given is biochemical. How it is done:
as §1, §2, §3

Data set [3] deals with HELF, a human embryonic lung fibroblast cell line. The data set can be described thus: MTT cytotoxicity assay on HELF cells. The class given is cell-based. The settings on record: different cell lines. How it is done:
The cytotoxicity of selected sulfonium salts (20a, 20c, and 10) was then evaluated via the 3-[4,5-dimethylthiazol-2-yl]-2,5-diphenyl-tetrazolium bromide (MTT) assay against different cell lines.
Briefly, the HELF-adherent cells were cultured in a 96-well plate overnight in a CO2 environment at 37 °C. Supernatant was removed, and 100 μL serially diluted compounds with complete medium DMEM supplemented with 10% (v/v) fetal bovine serum, penicillin (100 units/mL), and streptomycin (100 μg/mL) were added to each well. After the incubation, the culture medium was aspirated carefully, and 50 μL of MTT solution (2mg/mL PBS) was added to each well and further incubated for 4h. After this, MTT solution was aspirated, and cells were PBS-washed once, and 100 μL of DMSO was added to dissolve the blue insoluble MTT formazan produced by the action of mitochondrial dehydrogenase. The plate was agitated at room temperature for 15 min and then read at 570 nm by using a microplate reader. The percentage of viable cells was calculated as the relative ratio of optical densities.

The test system of the next data set is sucrose-loaded mice. The data set can be described thus: Sucrose loading test (hypoglycemic effect). Type of data set: in vivo, ICR mice. To be noted: sucrose loading […] p.o. As to the method:
Research has shown a strong association between the 2 h postprandial blood glucose level and the risk of cardiovascular events, diabetic microvascular complications such as retinopathy, and the progression of macrovascular diseases. […] Considering this underlying pathological process, α-glucosidase inhibitors, which efficiently regulate postprandial glucose fluctuations, hold significant therapeutic promise for alleviating diabetes-related complications. […] Subsequently, doses were reduced to 1.0 mg/kg.
(§4) The animal experimental protocols in this study were approved by the Experimental Animal Center of Shanghai Institute of Materia Medica (Shanghai, China). Male ICR (Institute of Cancer Research) mice (29−33 g) after an overnight fast were used for acute maltose and sucrose loading tests. In the maltose loading test, maltose (2.0 mpk of body weight) and the inhibitors and voglibose were dissolved in distillation−distillation water and administered to the mice via a stomach tube. A control group was loaded with distillation−distillation water. In the sucrose loading test, sucrose (2.5 g/kg of body weight) and the inhibitor miglitol were dissolved in distillation−distillation water and administered to the mice via a stomach tube. A control group was loaded with distillation−distillation water. Blood samples for glucose measurements were obtained from the tail vein at 0, 15, 30, 60, and 120 min after maltose and sucrose loading. The blood glucose levels were measured by a portable kit, StatStrip Xpress (Nova Biomedical Co., Ltd., Waltham, MA, USA). The AUC over was calculated by the trapezoidal method.

A further data set deals with maltose-loaded mice. The data set can be described thus: Maltose loading test (hypoglycemic effect). To be noted: maltose loading 2.0 g/kg, 1.0 mpk. The class given is in vivo, ICR mice. How it is done: A maltose loading test on compounds 10, 20c, neoponkoranol, and positive control (voglibose) was conducted to further evaluate their in vivo hypoglycemic effects against maltase.
as §4, with “In the maltose loading test, maltose (2.0 mpk of body weight) and the inhibitors and voglibose were dissolved in distillation−distillation water and administered to the mice via a stomach tube.” left out

Data set [4] addresses rat intestinal maltase. The data set can be described thus: In vitro α-glucosidase inhibition assay, rat intestinal maltase. Type of data set: biochemical. To be noted: rat small intestinal brush border membrane vesicles; maltose substrate; mean ± SD (n = 3); read-out: IC50 against maltase. As to the method:
(§5) The testing method previously described was modified and used. Thus, rat small intestinal brush border membrane vesicles were first prepared, and its suspension in 0.1 M maleate buffer (pH = 6.0) was used as small intestinal α-glucosidases of maltase and sucrase. A test compound was dissolved in dimethylsulfoxide (DMSO), and the resulting solution was diluted with 0.1 M maleate buffer to prepare the test compound solution (concentration of DMSO: 10%). The substrate solution in maleate buffer ([…], 50 μL), a test compound solution (25 μL), and the enzyme solution (25 μL) were mixed and incubated at 37 °C for 30 min. After incubation, the solution was immediately heated by boiling water for 2 min to stop the reaction, and the solution was mixed with water (150 μL). Glucose concentration was determined by the glucose-oxidase method. […] The IC50 value was determined graphically by a plot of percent inhibition versus log of the test compound.

Data set [5] concerns the target T1, rat intestinal sucrase. The data set can be described thus: In vitro α-glucosidase inhibition assay, rat intestinal sucrase. Type of data set: biochemical. As to the method: as §5
[6] abbreviates: rat small intestinal brush border membrane vesicles, sucrose substrate, mean ± SD (n = 3), read-out: IC50 against sucrase.

Like-named read-outs stand apart in the source and are kept apart here.

T1 sequence (P23739 whole entry): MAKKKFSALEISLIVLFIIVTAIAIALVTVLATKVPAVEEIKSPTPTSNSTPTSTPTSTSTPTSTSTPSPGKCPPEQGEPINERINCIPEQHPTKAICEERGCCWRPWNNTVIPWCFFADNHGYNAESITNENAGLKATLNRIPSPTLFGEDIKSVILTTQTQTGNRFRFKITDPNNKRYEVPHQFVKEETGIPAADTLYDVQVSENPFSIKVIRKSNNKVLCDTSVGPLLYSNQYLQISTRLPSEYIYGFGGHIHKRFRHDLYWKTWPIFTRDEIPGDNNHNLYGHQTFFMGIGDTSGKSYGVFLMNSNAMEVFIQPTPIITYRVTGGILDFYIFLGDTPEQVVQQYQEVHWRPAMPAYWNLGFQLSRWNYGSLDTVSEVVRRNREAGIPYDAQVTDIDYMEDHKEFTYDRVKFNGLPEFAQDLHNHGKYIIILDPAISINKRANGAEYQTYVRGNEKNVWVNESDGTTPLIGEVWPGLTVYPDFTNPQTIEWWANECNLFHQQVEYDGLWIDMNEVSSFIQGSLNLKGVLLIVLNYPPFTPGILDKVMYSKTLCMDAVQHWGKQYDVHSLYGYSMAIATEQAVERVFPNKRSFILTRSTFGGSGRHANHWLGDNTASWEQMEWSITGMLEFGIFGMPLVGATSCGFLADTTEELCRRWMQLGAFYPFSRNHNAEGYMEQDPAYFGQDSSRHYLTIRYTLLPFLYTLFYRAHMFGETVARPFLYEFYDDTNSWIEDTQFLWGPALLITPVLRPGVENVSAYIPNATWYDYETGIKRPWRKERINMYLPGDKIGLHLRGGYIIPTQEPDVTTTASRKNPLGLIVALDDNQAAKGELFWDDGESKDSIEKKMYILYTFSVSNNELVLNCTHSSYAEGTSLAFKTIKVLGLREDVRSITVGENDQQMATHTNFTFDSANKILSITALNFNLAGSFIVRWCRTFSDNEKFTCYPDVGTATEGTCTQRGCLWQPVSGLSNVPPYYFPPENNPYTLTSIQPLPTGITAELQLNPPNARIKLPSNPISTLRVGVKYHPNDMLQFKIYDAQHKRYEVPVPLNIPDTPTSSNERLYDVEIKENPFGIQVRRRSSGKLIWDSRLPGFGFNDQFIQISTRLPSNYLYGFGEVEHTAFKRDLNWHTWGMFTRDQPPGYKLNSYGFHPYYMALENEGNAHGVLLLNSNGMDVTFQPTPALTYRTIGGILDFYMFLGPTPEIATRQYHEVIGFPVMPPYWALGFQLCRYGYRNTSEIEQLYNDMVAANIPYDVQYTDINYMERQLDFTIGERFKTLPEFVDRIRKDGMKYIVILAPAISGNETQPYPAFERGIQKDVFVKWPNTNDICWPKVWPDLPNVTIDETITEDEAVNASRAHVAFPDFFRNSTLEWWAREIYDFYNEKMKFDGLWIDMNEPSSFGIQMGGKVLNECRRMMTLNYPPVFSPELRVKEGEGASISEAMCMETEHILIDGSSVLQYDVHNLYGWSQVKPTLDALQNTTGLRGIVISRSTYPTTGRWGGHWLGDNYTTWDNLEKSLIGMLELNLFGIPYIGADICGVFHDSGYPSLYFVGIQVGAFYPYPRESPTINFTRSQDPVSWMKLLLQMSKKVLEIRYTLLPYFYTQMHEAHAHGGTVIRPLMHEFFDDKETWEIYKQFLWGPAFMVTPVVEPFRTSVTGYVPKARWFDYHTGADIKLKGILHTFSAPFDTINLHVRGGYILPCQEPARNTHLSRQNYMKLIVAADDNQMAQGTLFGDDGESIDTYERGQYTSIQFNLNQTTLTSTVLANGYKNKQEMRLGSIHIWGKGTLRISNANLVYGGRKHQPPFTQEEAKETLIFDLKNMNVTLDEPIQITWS

In the case of `O=[N+]([O-])c1ccccc1C1OC[C@@H](O)[C@@H]([C@H](O)C[S@@+]2C[C@@H](O)[C@H](O)[C@H]2CO)O1` (some centres unmarked) [compound 10], the “type of inhibition, maltase” value in the data set on rat intestinal maltase [1] (Lineweaver–Burk plots) is reported as “fully competitive”. Also, at rat intestinal maltase [1] (small intestinal α-glucosidase, Lineweaver–Burk), the “Ki Maltase (Km = 3.0 mM)” value came out at 0.42 µg/mL. In addition, the “type of inhibition, sucrase” value at rat intestinal sucrase [2] (Lineweaver–Burk plots) is given as “fully competitive”. Moreover, the Ki at rat intestinal sucrase [2] (small intestinal α-glucosidase, Lineweaver–Burk, read-out: Ki Sucrase (Km = 23.56 mM) (converted)) was 693 nM. The “cytotoxicity (MTT assay)” value in data set [3] was “non-toxic”. The “Declined Rate of Blood Glucose Levels, 15 min” value in the data set on sucrose-loaded mice (1.0 mpk) came out at 41.8%; in the data set with sucrose-loaded mice (10.0 mpk), 48.0%; in the data set on maltose-loaded mice (15 min, 1 mg/kg), 52.8%. For the same molecule, the “Declined Rate of Blood Glucose Levels, 30 min” value in the data set with sucrose-loaded mice (1.0 mpk) came to 43.00%; in the data set on sucrose-loaded mice (10.0 mpk), 54.6%; in the data set on maltose-loaded mice (30 min, 1 mg/kg) it was 55.0%. The “Declined Rate of Blood Glucose Levels, 60 min” value in the data set with sucrose-loaded mice (1.0 mpk) amounted to 39.1%; in the data set with sucrose-loaded mice (10.0 mpk), 52.5%; in the data set with maltose-loaded mice (60 min, 1 mg/kg), 47.2%. Besides, the “Declined Rate of AUC” value was found to be 35.2% with sucrose-loaded mice (1.0 mpk), 46.6% with sucrose-loaded mice (10.0 mpk) and 43.5% in the data set on maltose-loaded mice (AUC).
`O=[N+]([O-])c1ccc(F)cc1C1OC[C@@H](O)[C@@H]([C@H](O)C[Se@@+]2C[C@@H](O)[C@H](O)[C@H]2CO)O1` (stereo partly drawn) [20j, (1S,2R,3S,4S)-1-((2S)-2-((4S,5R)-2-(5-Fluoro-2-nitrophenyl)-5-hydroxy-1,3-dioxan-4-yl)-2-hydroxyethyl)-3,4-dihydroxy-2-(hydroxymethyl)tetrahydro-1H-selenophen-1-ium chloride]: the values for the IC50 on rat intestinal maltase [4] and against rat intestinal sucrase [5] were 330 ± 80 nM and 90 ± 30 nM, respectively.
As for `O=[N+]([O-])c1ccc(F)cc1C1OCC(O)C(C(O)C[S+]2CC(O)C(O)C2CO)O1` [19j, 1,4-Dideoxy-1,4-[(R)-(5-deoxy-1,3-O-(5-fluoro-2-nitrobenzylidene)-D-arabinitol-5-yl)episulfoniumylidene]-D-arabinitol chloride], the half-inhibitory concentration (IC50) came out at 750 ± 80 nM at rat intestinal maltase [4] and 1500 ± 210 nM at rat intestinal sucrase [5] (setting [6]).
On to `OC[C@@H]1[C@@H](O)[C@H](O)C[Se@+]1C[C@@H](O)[C@H]1OC(c2cc(Cl)cc(Cl)c2)OC[C@H]1O` (stereo partly drawn) [20g, (1S,2R,3S,4S)-1-((2S)-2-((4S,5R)-2-(3,5-Dichlorophenyl)-5-hydroxy-1,3–dioxan-4-yl)-2-hydroxyethyl)-3,4-dihydroxy-2-(hydroxymethyl)tetrahydro-1H-selenophen-1-ium Chloride], for which the IC50 is 710 ± 210 nM at rat intestinal maltase [4] and 220 ± 50 nM against rat intestinal sucrase [5].
Regarding `OC[C@@H]1[C@@H](O)[C@H](O)C[Se@+]1C[C@@H](O)[C@H]1OC(c2ccccc2Br)OC[C@H]1O` (stereo partly drawn) [20k, (1S,2R,3S,4S)-1-((2S)-2-((4S,5R)-2-(2-Bromophenyl)-5-hydroxy-1,3-dioxan-4-yl)-2-hydroxyethyl)-3,4-dihydroxy-2-(hydroxymethyl)tetrahydro-1H-selenophen-1-ium chloride], the IC50 at rat intestinal maltase [4] is 530 ± 220 nM; against rat intestinal sucrase [5] it was 120 ± 50 nM.
On the same counts, the results for `OC[C@@H]1[C@@H](O)[C@H](O)C[Se@+]1C[C@@H](O)[C@H]1OC(c2cc(C(F)(F)F)cc(C(F)(F)F)c2)OC[C@H]1O` (stereo partly drawn) [20i, (1S,2R,3S,4S)-1-((2S)-2-((4S,5R)-2-(3,5-Bis(trifluoromethyl)phenyl)-5-hydroxy-1,3-dioxan-4-yl)-2-hydroxyethyl)-3,4-dihydroxy-2-(hydroxymethyl)tetrahydro-1H-selenophen-1-ium chloride] are 1010 ± 320 nM and 410 ± 110 nM.
On the same counts, the results for `OC[C@@H]1[C@@H](O)[C@H](O)C[Se@+]1C[C@@H](O)[C@H]1OC(c2ccc(Cl)c(Cl)c2)OC[C@H]1O` (stereo partly drawn) [20f, (1S,2R,3S,4S)-1-((2S)-2-((4S,5R)-2-(3,4-Dichlorophenyl)-5-hydroxy-1,3-dioxan-4-yl)-2-hydroxyethyl)-3,4-dihydroxy-2-(hydroxymethyl)tetrahydro-1H-selenophen-1-ium chloride] are 470 ± 110 nM and 330 ± 40 nM.
Regarding `OCC1C(O)C(O)C[S+]1CC(O)C1OC(c2cc(Cl)cc(Cl)c2)OCC1O` [19g, 1,4-Dideoxy-1,4-[(R)-(5-deoxy-1,3-O-(3,5-dichlorobenzylidene)-D-arabinitol-5-yl)episulfoniumylidene]-D-arabinitol chloride], the IC50 at rat intestinal maltase [4] amounted to 4900 ± 250 nM; on rat intestinal sucrase [5] (setting [6]), 5500 ± 620 nM.
On to `OC[C@@H]1[C@@H](O)[C@H](O)C[Se@+]1C[C@@H](O)[C@H]1OC(c2ccc(Br)cc2)OC[C@H]1O` (stereo partly drawn) [20m, (1S,2R,3S,4S)-1-((2S)-2-((4S,5R)-2-(4-Bromophenyl)-5-hydroxy-1,3-dioxan-4-yl)-2-hydroxyethyl)-3,4-dihydroxy-2-(hydroxymethyl)tetrahydro-1H-selenophen-1-ium chloride], for which the IC50 is 70 ± 30 nM at rat intestinal maltase [4] and 200 ± 50 nM against rat intestinal sucrase [5].
`OC[C@@H]1[C@@H](O)[C@H](O)C[Se@+]1C[C@@H](O)[C@H]1OC(c2cccc(F)c2Cl)OC[C@H]1O` (stereo partly drawn) [20d, (1S,2R,3S,4S)-1-((2S)-2-((4S,5R)-2-(2-Chloro-3-fluorophenyl)-5-hydroxy-1,3-dioxan-4-yl)-2-hydroxyethyl)-3,4-dihydroxy-2-(hydroxymethyl)tetrahydro-1H-selenophen-1-ium chloride]: the figures for the IC50 on rat intestinal maltase [4] and against rat intestinal sucrase [5] were 620 ± 70 nM and 870 ± 230 nM, respectively.

As usually defined, the Ki is a dissociation constant, usually derived from enzyme kinetics or from competition with a known ligand. By IC50 is commonly meant the concentration that gives 50% inhibition.
